Like-named read-outs stand apart in the source and are kept apart here.
Tests used:
Assay type in all cases: in vivo
[1] = tested on: total evaluation; assay: Test Example 13: field plot test, total evaluation of growth inhibition; details: Example 8 suspension concentrate, 27 days after treatment, field plots; for inhibition at 40 g/ha: Compound A 40 g/ha
Excerpt: In field plots of 4 m² (1 m × 4 m) unit arranged in a duplicate system, seeds of corn, crabgrass (Digitaria sanguinalis L.) common lambsquarters (Chenopodium album L.), slender amaranth (Amaranthus viridis L.), velvetleaf (Abutilon theophrasti MEDIC.) and common cocklebur (Xanthium strumarium L.) were sown and grown. Also, green foxtail (Setaria viridis L.) and barnyardgrass (Echinochloa crus-galli L.) were allowed to grow spontaneously. When the plants grew to certain stages (corn: 4.2 to 6.0-leaf stage, crabgrass: 3.2 to 5.0-leaf stage, common lambsquarters: 3.0 to 6.0-leaf stage, slender amaranth: 2.0 to 5.0-leaf stage, velvetleaf: 1.5 to 4.0-leaf stage, common cocklebur: cotyledonal to 3.5-leaf stage, green foxtail: 3.0 to 5.0-leaf stage and barnyardgrass: 3.0 to 5.0-leaf stage), the oil-based suspension concentrate obtained in Example 8 was diluted with 200 liters/hectare of water containing a predetermined amount of Frigate and was applied foliarly to the plants with a small spray gun.
Twenty seven days after treatment, the growth inhibition of plants except for corn plants was evaluated with visual observation in the same manner as in Test Example 1 and are shown in Table 13.

[2] = tested on: green foxtail (Setaria viridis L.); assay: Test Example 12: field plot test, growth inhibition; details: 648 h, Example 8 suspension concentrate, 27 days after treatment, field plots, read-out: Growth Inhibition (%) SV
Excerpt: (§1) In field plots of 3 m² (1 m × 3 m) unit arranged in a duplicate system, seeds of corn, crabgrass (Digitaria sanguinalis L.), green foxtail (Setaria viridis L.), common lambsquarters (Chenopodium album L.), slender amaranth (Amaranthus virdis L.) and velvetleaf (Abutilon theophrasti MEDIC.) were sown and grown. Also, barnyardgrass (Echinochloa crus-galli L.), henbit (Lamiun amplexlcaule L.), pale smartweed (Polygonum lapathifolium L.) and threeseeded copperleaf (Acalypha australis L.) were allowed to grow spontaneously. When the plants grew to certain stages (corn: 6.1 to 6.5-leaf stage, crabgrass: 2.0 to 4.5-leaf stage, green foxtail: 3.0 to 4.5-leaf stage, common lambsquarters: 4.0 to 8.0-leaf stage, slender amaranth: 1.0 to 4.0-leaf stage, velvetleaf: 2.0 to 3.5-leaf stage, barnyardgrass: 3.0 to 4.5-leaf stage, henbit: 2.0 to 5.0 cm, pale smartweed: 3.0 to 5.0-leaf stage and threeseeded copperleaf: 2.0 to 4.0-leaf stage), the oil-based suspension concentrate obtained in Example 8 was diluted with 200 liters/hectare of water containing a predetermined amount of Frigate and was applied foliarly to the plants with a small spray gun.
(§2) Twenty seven days after treatment, the growth inhibition of plants except for corn plants was evaluated with visual observation in the same manner as in Test Example 1 and are shown in Table 12.

[3] = tested on: Common lambsquarters (Chenopodium album L.); assay: as above; details: Example 8 suspension concentrate, 27 days after treatment, field plots; for inhibition at 40 g/ha: Compound A 40 g/ha; for inhibition at 60 g/ha: Compound A 60 g/ha
Excerpt: as §1, §2

[4] = tested on: Velvetleaf (Abutilon theophrasti MEDIC.); assay: as above; details: Example 8 suspension concentrate, 27 days after treatment, field plots; for inhibition at 40 g/ha: Compound A 40 g/ha
Excerpt: as §1, §2

[5] = tested on: pale smartweed (Polygonum lapathifolium L.); assay: as above; details: Example 8 suspension concentrate, 27 days after treatment, field plots; for inhibition at 60 g/ha: Compound A 60 g/ha
Excerpt: as §1, §2

[6] = tested on: barnyardgrass (Echinochloa crus-galli L.); assay: as above; details: 648 h, Example 8 suspension concentrate, 27 days after treatment, field plots, read-out: Growth Inhibition (%) EC
Excerpt: as §1, §2

[7] = tested on: Crabgrass (Digitaria sanguinalis L.); assay: as above; details: 648 h, Example 8 suspension concentrate, 27 days after treatment, field plots, read-out: Growth Inhibition (%) DS; for inhibition at 40 g/ha: Compound A 40 g/ha; for inhibition at 60 g/ha: Compound A 60 g/ha
Excerpt: as §1, §2

[8] = tested on: henbit (Lamiun amplexlcaule L.); assay: as above; details: 648 h, Example 8 suspension concentrate, 27 days after treatment, field plots, read-out: Growth Inhibition (%) LA
Excerpt: as §1, §2

[9] = tested on: threeseeded copperleaf (Acalypha australis L.); assay: as above; details: Example 8 suspension concentrate, 27 days after treatment, field plots; for inhibition at 40 g/ha: Compound A 40 g/ha
Excerpt: as §1, §2

[10] = tested on: slender amaranth (Amaranthus virdis L.); assay: as above; details: 648 h, Example 8 suspension concentrate, 27 days after treatment, field plots, read-out: Growth Inhibition (%) AV; for inhibition at 40 g/ha: Compound A 40 g/ha; for inhibition at 60 g/ha: Compound A 60 g/ha
Excerpt: as §1, §2

[11] = Frigate 0.2 % by volume, Compound A 20 g/ha
[12] = Frigate 0.2 % by volume, Compound A 30 g/ha
[13] = Frigate 0.2 % by volume, Compound A 40 g/ha
[14] = Frigate: No addition, Compound A 60 g/ha
[15] = Chenopodium album, 648 h, Frigate 0.2 % by volume, read-out: Growth Inhibition (%) CA
[16] = Chenopodium album, 648 h, Frigate: No addition, read-out: Growth Inhibition (%) CA
[17] = Frigate 0.2 % by volume, Compound A 60 g/ha

With `COc1cc(OC)nc(NC(=O)NS(=O)(=O)c2ncccc2C(=O)N(C)C)n1` [Compound A, N-[(4,6-dimethoxypyrimidin-2-yl)aminocarbonyl]-3-dimethylaminocarbonyl-2-pyridinesulfonamide] the inhibition at 30 g/ha ([1]; 648 h, Frigate 0.1 % by volume, Compound A 30 g/ha, read-out: Growth Inhibition (%) TE) was 75%, the inhibition at 40 g/ha ([1]; 648 h, Frigate 0.1 % by volume, read-out: Growth Inhibition (%) TE) was 90% and the inhibition at 20 g/ha ([1]; 648 h, Frigate 0.2 % by volume, Compound A 20 g/ha, read-out: Growth Inhibition (%) TE) was 65%. It also gave an inhibition at 30 g/ha ([1]; 648 h, Frigate 0.2 % by volume, Compound A 30 g/ha, read-out: Growth Inhibition (%) TE) of 80%, an inhibition at 40 g/ha ([1]; 648 h, Frigate 0.2 % by volume, read-out: Growth Inhibition (%) TE) of 85% and an inhibition at 30 g/ha ([1]; 648 h, Frigate: No addition, Compound A 30 g/ha, read-out: Growth Inhibition (%) TE) of 50%. For the same molecule, the inhibition at 40 g/ha ([1]; 648 h, Frigate: No addition, read-out: Growth Inhibition (%) TE) was 70%, the inhibition at 50 g/ha ([1]; 648 h, Frigate: No addition, Compound A 50 g/ha, read-out: Growth Inhibition (%) TE) was 75% and the “Growth Inhibition (%) TE” value ([1]; Frigate: No addition, Compound A 30 g/ha) was 60%. For the same molecule, the inhibition at 20 g/ha [2, 11] was 100%, the inhibition at 30 g/ha [2, 12] was 100% and the inhibition at 40 g/ha [2, 13] was 100%. It also gave an inhibition at 60 g/ha [2, 14] of 100%, an inhibition at 20 g/ha ([3]; Chenopodium album, 648 h, Frigate 0.2 % by volume, Compound A 20 g/ha, read-out: Growth Inhibition (%) CA) of 80% and an inhibition at 30 g/ha ([3]; Chenopodium album, 648 h, Frigate 0.2 % by volume, Compound A 30 g/ha, read-out: Growth Inhibition (%) CA) of 80%. The inhibition at 40 g/ha [3, 15] was 95%, the inhibition at 60 g/ha [3, 15] was 99% and the inhibition at 40 g/ha [3, 16] was 40%. For the same molecule, the inhibition at 60 g/ha [3, 16] was 50%, the “Growth Inhibition (%) CA” value [3, 11] was 75% and the inhibition at 20 g/ha ([4]; Abutilon theophrasti, 648 h, Frigate 0.2 % by volume, Compound A 20 g/ha) was 75%. The inhibition at 30 g/ha ([4]; Abutilon theophrasti, 648 h, Frigate 0.2 % by volume, Compound A 30 g/ha) was 80%, the inhibition at 40 g/ha ([4]; Abutilon theophrasti, 648 h, Frigate 0.2 % by volume) was 80% and the inhibition at 60 g/ha ([4]; Abutilon theophrasti, 648 h, Frigate 0.2 % by volume, Compound A 60 g/ha) was 95%. For the same molecule, the inhibition at 40 g/ha ([4]; Abutilon theophrasti, 648 h, Frigate: No addition) was 70%, the inhibition at 60 g/ha ([4]; Abutilon theophrasti, 648 h, Frigate: No addition, Compound A 60 g/ha) was 65% and the “Growth Inhibition (%) AT” value [4, 17] was 100%. For the same molecule, the “Growth Inhibition (%) PL” value [5, 11] was 80%, the “Growth Inhibition (%) PL” value ([5]; Frigate: No addition, Compound A 40 g/ha) was 70% and the inhibition at 20 g/ha ([5]; Persicaria lapathifolia, 648 h, Frigate 0.2 % by volume, Compound A 20 g/ha, read-out: Growth Inhibition (%) PL) was 100%. It also gave an inhibition at 30 g/ha ([5]; Persicaria lapathifolia, 648 h, Frigate 0.2 % by volume, Compound A 30 g/ha, read-out: Growth Inhibition (%) PL) of 100%, an inhibition at 40 g/ha ([5]; Persicaria lapathifolia, 648 h, Frigate 0.2 % by volume, Compound A 40 g/ha, read-out: Growth Inhibition (%) PL) of 95% and an inhibition at 60 g/ha ([5]; Persicaria lapathifolia, 648 h, Frigate 0.2 % by volume, read-out: Growth Inhibition (%) PL) of 98%. For the same molecule, the inhibition at 40 g/ha ([5]; Persicaria lapathifolia, 648 h, Frigate: No addition, Compound A 40 g/ha, read-out: Growth Inhibition (%) PL) was 90%, the inhibition at 60 g/ha ([5]; Persicaria lapathifolia, 648 h, Frigate: No addition, read-out: Growth Inhibition (%) PL) was 100% and the inhibition at 20 g/ha [6, 11] was 100%. For the same molecule, the inhibition at 30 g/ha [6, 12] was 100%, the inhibition at 40 g/ha [6, 13] was 100% and the inhibition at 60 g/ha [6, 14] was 100%. The inhibition at 20 g/ha [7, 11] was 90%, the inhibition at 30 g/ha [7, 12] was 95% and the inhibition at 40 g/ha ([7]; Frigate 0.2 % by volume) was 95%. It also gave an inhibition at 60 g/ha ([7]; Frigate 0.2 % by volume) of 99%, an inhibition at 40 g/ha ([7]; Frigate: No addition) of 95% and an inhibition at 60 g/ha ([7]; Frigate: No addition) of 98%. For the same molecule, the inhibition at 20 g/ha [8, 11] was 98%, the inhibition at 30 g/ha [8, 12] was 98% and the inhibition at 40 g/ha [8, 13] was 98%. For the same molecule, the inhibition at 60 g/ha [8, 14] was 98%, the inhibition at 20 g/ha ([9]; Acalypha australis, 648 h, Frigate 0.2 % by volume, Compound A 20 g/ha, read-out: Growth Inhibition (%) AA) was 90% and the inhibition at 30 g/ha ([9]; Acalypha australis, 648 h, Frigate 0.2 % by volume, Compound A 30 g/ha, read-out: Growth Inhibition (%) AA) was 90%. For the same molecule, the inhibition at 40 g/ha ([9]; Acalypha australis, 648 h, Frigate 0.2 % by volume, read-out: Growth Inhibition (%) AA) was 95%, the inhibition at 60 g/ha ([9]; Acalypha australis, 648 h, Frigate 0.2 % by volume, Compound A 60 g/ha, read-out: Growth Inhibition (%) AA) was 90% and the inhibition at 40 g/ha ([9]; Acalypha australis, 648 h, Frigate: No addition, read-out: Growth Inhibition (%) AA) was 90%. The inhibition at 60 g/ha ([9]; Acalypha australis, 648 h, Frigate: No addition, Compound A 60 g/ha, read-out: Growth Inhibition (%) AA) was 90%, the “Growth Inhibition (%) AA” value [9, 17] was 98% and the inhibition at 20 g/ha [10, 11] was 100%. It also gave an inhibition at 30 g/ha [10, 12] of 99%, an inhibition at 40 g/ha ([10]; Frigate 0.2 % by volume) of 99% and an inhibition at 60 g/ha ([10]; Frigate 0.2 % by volume) of 99%. For the same molecule, the inhibition at 40 g/ha ([10]; Frigate: No addition) was 99% and the inhibition at 60 g/ha ([10]; Frigate: No addition) was 99%.

From patent EP0598515A1, “Method for herbicidal activity-enhancing, activity-enhanced herbicidal composition and activity-enhancing composition” (ISHIHARA SANGYO KAISHA LTD., priority 1992, dated 1994)
